Reference: patent US20200061092A1, “METHODS AND COMPOSITIONS FOR TREATING DISORDERS ASSOCIATED WITH MUSCLE WEAKNESS” (priority 2018, published 2020)

Assays:
Format in all cases: in vivo, mouse
[1] = system: ribitol, ribitol-5P and CDP-ribitol levels in heart and quadriceps; experiment: LC/MS-MS quantification of ribitol, ribitol-5P and CDP-ribitol in muscle tissues of P448L mice; details: 5% ribitol 1 month
Experimental: Ribitol was purchased from Sigma (A5502 Adonitol, ≥98%, Sigma, St. Louis) and dissolved in drinking water to the final concentration of 5% or 10%. […] mice aged at 4 weeks were treated with 5% ribitol drinking water for 1 month and […] mice aged at 7 weeks were treated with 5% ribitol drinking water for 3 months and 6 months. All the mice were randomly assigned to either treatment or control groups. And a minimum number of 4 mice were used for each group. No animal was excluded. […] female breeders were given 10% ribitol in drinking water during pregnancy, and pups continued to be treated with 10% ribitol in drinking water until they were euthanized at 19 weeks of age. Untreated age-matched […] and wild-type C57BL/6 mice were used as controls. The animals were terminated at the end of each treatment time point and tissues including heart, diaphragm, TA, quadriceps, liver, spleen and kidney were collected for analyses. Ribitol was purchased from Sigma (A5502). […] The supernatants were removed, transferred to individual wells of 96-well plate and analyzed by LC/MS-MS. […] The metabolites were analyzed using electrospray ionization mass spectrometry operated in positive ion mode, ESI+. Compounds concentration in tissue samples were determined based on standard curves prepared by serial dilutions (200-0.01 μM) of each of the compound in MeOH:ACN (1:1).

[2] = system: FKRP P448L mutant mice; experiment: Muscle function tests (treadmill exhaustion, grip strength) in P448L mice
Experimental: For treadmill exhaustion test, 17 and 30 weeks old mice were placed on the belt of a five-lane-motorized treadmill (LE8700 treadmill, Panlab/Harvard Apparatus, Barcelona, Spain) supplied with shock grids mounted at the back of the treadmill, which delivered a 0.2 mA current to provide motivation for exercise. Initially, the mice were subjected to an acclimation period (time, 5 min; speed, 8 cm/s, and 0° incline). Immediately after acclimation period, the test commenced with speed increases of 2 cm/s every minute until exhaustion. The test was stopped and the time to exhaustion was determined when the mouse remained on the shock grid for 5 s without attempting to re-engage the treadmill. For grip force test, forelimb and hindlimb in peak torque was measured by a grip strength meter (Columbus Instruments). For forelimb force, the animal was held so that only the forelimb paws grasp the specially designed mouse flat mesh assembly, and was pulled back from the tail until the grip was broken. The force transducer recorded the peak force reached when the animal's grip is broken. For hindlimb force, an angled mesh assembly was used. Mice were allowed to rest on the angled mesh assembly, facing away from the meter with its hindlimbs at least one-half of the way down the length of the mesh. The mouse tail was pulled directly toward the meter and parallel to the mesh assembly. During this procedure, the mice resist by grasping the mesh with all four limbs. Pulling toward the meter was continued until the hindlimbs released from the mesh assembly. Five successful hindlimb and forelimb force measurements within 2 minutes were recorded. The average value was used for analysis. Force was presented as values of KGF (kilogram-force) units normalized to bodyweights (gr) as “Units/gr”. The tests were performed 1 week before euthanasia.

[3] = system: FKRP P448L mutant mice; experiment: Whole body plethysmography (respiratory function) in P448L mice
Experimental: Respiratory functional analysis in conscious, freely moving 18 and 31 weeks old mice were measured using a whole-body plethysmography technique. The plethysmograph apparatus (Emka Technologies, Falls Church, Va.) was connected to a ventilation pump for the purpose of maintaining a constant air flow, a differential pressure transducer, a usbAMP signal amplifier, and a computer running EMKA iox2 software with the respiratory flow analyzer module, which was used to detect pressure changes due to breathing and recording the transducer signal. An initial amount of 20 mL of air was injected and withdrawn via a 20 mL syringe into the chamber for the purpose of calibration. Mice were placed inside the “free moving” plethysmograph chamber and allowed to acclimate for 5 min in order to minimize any effects of stress related changes in ventilation. Resting ventilation was measured for a duration of 15 min after the acclimation period. Body temperatures of all mice were assumed to be 37° C. and to remain constant during the ventilation protocol.

[4] = 10% ribitol from pregnancy, 18 weeks of age

SMILES: OC[C@@H](O)[C@@H](O)[C@@H](O)CO [ribitol]
- Levels of ribitol, ribitol-5P and CDP-ribitol vs untreated P448L ([1]; heart and quadricep): increased levels
- CDP-ribitol levels, treated vs untreated ([1]; heart and quadriceps): at least 4 fold
- Limb muscle function (treadmill exhaustion test) ([2]; 5% ribitol, 3 and 6 months): significant improvement in limb muscle function was not demonstrated
- Treadmill running distance and time vs untreated ([2]; 10% ribitol from pregnancy, 17 weeks of age): significantly longer
- Grip strength, forelimb force vs untreated [2, 4]: significant improvement
- Tidal volume (TV), expiratory volume (EV), minute volume (MV) vs untreated ([3]; 5% ribitol, 3 and 6 months): trend of improvement
- Improvement in EV and MV ([3]; 5% ribitol, 6 months): statistically significant
- Peak inspiratory flow (PIF) and peak expiratory flow (PEF) ([3]; 5% ribitol, 6 months): Improvement was also observed
- Expired volume (EV), relaxation time (RT), enhanced pause (Penh) [3, 4]: improvement
- Minute volume (MV) and end-expiratory pause (EEP) vs untreated [3, 4]: reaching significant difference
